Experimental data from patent US9249147B2, “Tyrosine kinase inhibitors” (CHEMBRIDGE CORPORATION, priority 2008, dated 2016).
Values joined by “and” are separate entries in the source; they are usually repeats but may differ in a detail not shown here. Equal values may be shown once.

Columns and labels:
Karpas299 = test: Cell proliferation inhibition, ALCL line Karpas299; format: cell-based; conditions: Homo sapiens, KARPAS-299; Example 4, most sensitive cell lines; read-out: Proliferation IC50 Karpas299
Method in brief: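 NPM-ALK-positive Karpas-299 cells (2×10^4 per well) were treated with compound at final concentrations of 25 to 0.78125 μM, with DMSO-only controls. Proliferation and viability were read colorimetrically by XTT reduction to formazan.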

Fer = target: T1, Fer (Homo sapiens, UniProt P16591); test: Invitrogen SelectScreen Z-lyte kinase assay, Fer; format: biochemical
T1 construct: purchased Invitrogen
T1 sequence (P16591 whole entry): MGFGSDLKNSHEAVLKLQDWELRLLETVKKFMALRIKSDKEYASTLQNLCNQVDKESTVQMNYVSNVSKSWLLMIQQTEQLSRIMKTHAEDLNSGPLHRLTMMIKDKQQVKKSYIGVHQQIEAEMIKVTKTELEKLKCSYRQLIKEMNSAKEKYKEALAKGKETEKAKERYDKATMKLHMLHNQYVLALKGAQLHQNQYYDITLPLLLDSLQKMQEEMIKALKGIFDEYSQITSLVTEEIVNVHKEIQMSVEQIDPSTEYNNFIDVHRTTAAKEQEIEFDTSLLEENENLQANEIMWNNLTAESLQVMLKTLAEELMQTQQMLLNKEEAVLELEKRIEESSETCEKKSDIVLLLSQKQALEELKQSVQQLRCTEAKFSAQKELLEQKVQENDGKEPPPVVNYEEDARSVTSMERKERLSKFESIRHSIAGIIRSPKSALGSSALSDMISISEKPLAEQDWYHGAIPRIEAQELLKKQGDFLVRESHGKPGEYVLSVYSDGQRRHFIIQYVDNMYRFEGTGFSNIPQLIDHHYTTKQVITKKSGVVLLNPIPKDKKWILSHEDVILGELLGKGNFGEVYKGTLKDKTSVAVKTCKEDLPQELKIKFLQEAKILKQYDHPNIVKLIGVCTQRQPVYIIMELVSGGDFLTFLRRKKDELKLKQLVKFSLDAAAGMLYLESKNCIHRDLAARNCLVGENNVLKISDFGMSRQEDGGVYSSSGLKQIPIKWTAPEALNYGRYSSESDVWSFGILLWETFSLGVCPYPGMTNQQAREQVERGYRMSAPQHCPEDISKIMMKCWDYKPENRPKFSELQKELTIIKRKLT

10 Ser-Thr kinases = test: Single point radiometric profiling on Ser-Thr kinases (Upstate/Millipore); format: biochemical; conditions: 50 nM compound
Protocol: (§1) To evaluate selectivity versus other kinases, inhibition of various kinases by compound (II) was determined. In particular, IC50s for TrkA, Jak2, Axl tyrosine kinases were determined using ADP Hunter (DiscoverX) kinase assay. Single point profiling of compound (II) on 50 human tyrosine kinases and 10 Ser-Thr kinases was done at Upstate/Millipore by radiometric assay. […] The subset of the 520 kinases in the human kinome that were tested was strategically selected to cover most of the therapeutically relevant tyrosine kinases and to represent major branches of serine-threonine kinases.

CYP2C9 = target: T2, CYP2C9 (Homo sapiens, UniProt P11712); test: CYP2C9 Inhibition (recombinant, MFC substrate); format: in vitro ADME
T2 construct: purchased Cerep (contract assay, ADMET Study 13170)
T2 sequence (P11712 whole entry): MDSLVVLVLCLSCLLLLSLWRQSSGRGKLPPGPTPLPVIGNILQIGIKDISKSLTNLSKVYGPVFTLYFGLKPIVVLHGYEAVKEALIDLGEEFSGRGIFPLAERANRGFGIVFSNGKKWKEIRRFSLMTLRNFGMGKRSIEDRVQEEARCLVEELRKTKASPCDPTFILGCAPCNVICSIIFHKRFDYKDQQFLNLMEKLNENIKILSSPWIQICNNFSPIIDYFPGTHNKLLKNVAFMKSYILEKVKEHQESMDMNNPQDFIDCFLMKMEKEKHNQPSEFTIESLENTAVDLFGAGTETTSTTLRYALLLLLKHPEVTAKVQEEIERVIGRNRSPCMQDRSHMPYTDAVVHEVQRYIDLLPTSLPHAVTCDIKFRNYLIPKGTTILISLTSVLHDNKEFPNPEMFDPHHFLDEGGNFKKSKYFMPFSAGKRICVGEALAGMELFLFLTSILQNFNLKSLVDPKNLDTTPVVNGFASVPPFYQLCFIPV

[1] = Maximum Tolerated Dose toxicity study in mice; conditions: both, CD-1, mouse, in vivo, 14 days
Protocol: The toxicity study in mice (Maximum Tolerated Dose) was done with CD-1 strain of mice in groups of 50% male-50% female animals (10 animals per group) at the dosing levels of 2.5, 5, 10, and 20 mg/kg (intarperitoneal) and 5 and 10 mg/kg (peroral). Animals were dosed for 14 days, bid (the actual daily doses were twice those shown) and observed without dosing for additional 14 days. […].

[2] = Solubility in acidic aqueous formulation vehicle; format: physicochemical; conditions: pH 4-6
Protocol: The solubility of compound (II) in aqueous buffers has been tested at Cerep, as part of ADMET Study 13170. […] Such aqueous solubility was at least as good as or higher than a typical one for a small molecule, ATP-competitive kinase inhibitor. The compound has much higher aqueous solubility at lower pH. 20-50 mM acetic or tartaric acid (pH 4-6) was used to dissolve the compound at concentrations up to 5 mg/ml (or ˜10 mM); this type of formulation was used for our animal toxicity and PK studies. Compound (II) was also well soluble in such organic solvents as DMSO or N-methyl pyrrolidone and can be subsequently solubilized in aqueous formulations containing 2% Tween 80 or 5-20% Solutol HS15.

[3] = Pharmacokinetics study in CD-1 mice (IV, PO); format: in vivo; conditions: IV 1 mg/kg, time point 0.35, individual animals A-D
ALK [4] = target: T3, ALK (Homo sapiens, UniProt Q9UM73); test: Invitrogen SelectScreen Z-lyte kinase assay, ALK; format: biochemical; parameters: purchased Invitrogen (SelectScreen service); conditions: 100 μM ATP
T3 sequence (Q9UM73 19-1620): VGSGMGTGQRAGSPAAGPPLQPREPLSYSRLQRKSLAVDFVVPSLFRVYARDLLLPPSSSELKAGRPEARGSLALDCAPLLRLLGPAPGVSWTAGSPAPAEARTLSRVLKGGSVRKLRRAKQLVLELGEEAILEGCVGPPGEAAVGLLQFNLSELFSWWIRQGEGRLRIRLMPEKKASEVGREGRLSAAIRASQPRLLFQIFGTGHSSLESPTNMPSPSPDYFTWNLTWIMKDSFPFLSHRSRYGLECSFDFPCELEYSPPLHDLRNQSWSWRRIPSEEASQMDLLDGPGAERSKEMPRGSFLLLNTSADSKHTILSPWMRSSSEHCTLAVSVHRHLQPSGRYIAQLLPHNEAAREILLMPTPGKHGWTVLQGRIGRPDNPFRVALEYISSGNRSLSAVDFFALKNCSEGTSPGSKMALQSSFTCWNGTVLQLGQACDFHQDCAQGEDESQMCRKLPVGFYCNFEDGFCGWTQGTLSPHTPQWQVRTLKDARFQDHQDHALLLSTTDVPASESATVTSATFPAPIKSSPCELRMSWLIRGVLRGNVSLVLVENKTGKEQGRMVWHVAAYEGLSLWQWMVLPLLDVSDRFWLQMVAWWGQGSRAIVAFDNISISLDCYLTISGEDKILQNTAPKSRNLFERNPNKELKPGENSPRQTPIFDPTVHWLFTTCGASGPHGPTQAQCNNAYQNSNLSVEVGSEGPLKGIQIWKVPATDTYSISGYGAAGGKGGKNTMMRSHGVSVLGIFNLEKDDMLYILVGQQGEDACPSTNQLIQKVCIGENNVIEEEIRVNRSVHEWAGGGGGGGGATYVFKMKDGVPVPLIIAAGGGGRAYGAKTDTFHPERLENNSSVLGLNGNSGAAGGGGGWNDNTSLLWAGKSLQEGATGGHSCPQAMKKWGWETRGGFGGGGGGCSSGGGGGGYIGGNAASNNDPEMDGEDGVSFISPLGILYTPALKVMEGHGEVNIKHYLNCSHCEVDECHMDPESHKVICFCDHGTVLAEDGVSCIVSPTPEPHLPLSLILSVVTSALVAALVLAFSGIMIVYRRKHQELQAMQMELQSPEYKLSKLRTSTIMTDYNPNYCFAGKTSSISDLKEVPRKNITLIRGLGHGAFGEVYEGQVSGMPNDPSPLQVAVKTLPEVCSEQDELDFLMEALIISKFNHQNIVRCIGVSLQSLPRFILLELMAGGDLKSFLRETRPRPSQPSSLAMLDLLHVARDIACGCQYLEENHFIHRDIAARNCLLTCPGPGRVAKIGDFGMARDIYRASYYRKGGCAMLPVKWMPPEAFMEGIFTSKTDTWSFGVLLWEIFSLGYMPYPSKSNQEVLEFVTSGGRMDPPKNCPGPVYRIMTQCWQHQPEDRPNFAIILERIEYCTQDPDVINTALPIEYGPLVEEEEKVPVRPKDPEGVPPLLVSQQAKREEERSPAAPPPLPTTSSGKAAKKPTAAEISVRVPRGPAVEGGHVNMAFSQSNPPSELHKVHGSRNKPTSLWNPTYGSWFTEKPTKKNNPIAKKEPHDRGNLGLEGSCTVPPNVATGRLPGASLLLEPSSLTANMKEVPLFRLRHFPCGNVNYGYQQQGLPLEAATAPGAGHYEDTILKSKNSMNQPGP
Protocol: as §1
Compound (II) was a multitargeted tyrosine kinase (TK) inhibitor with a distinct pattern of inhibition focused on ALK, Trk family, Ros and Ret kinases. Invitrogen SelectScreen (Z-lyte assay) produced the following IC5O values for this set of kinases: ALK 9.75 nM, TrkA 1.5 nM, TrkB 1.4 nM, TrkC 1.8 nM, Ret 7.1 nM, Ros 1.8 nM (all measured at 100 μM ATP). […] About 70% of the 50 TKs tested have selectivity in excess of 50-fold for ALK and higher for Ret, Ros and Trk family members.

ALK [5] = target: T3, ALK; test: Biochemical ALK inhibition (ADP Hunter, radiometric, Z-lyte); parameters: purchased DiscoveRx (ADP Hunter kit); Upstate/Millipore; Invitrogen
Protocol: Compound (II) (also labeled as CRL241 in some of the figures) was tested using several diverse assay technologies utilizing common assay readouts such as ADP generation detection and FRET or radiolabel-based measurement of phosphate incorporation in the substrate.
Biochemical potency of ALK inhibition (IC50) for compound (II) was determined in multiple experiments using a commercial ADP detection assay (ADP Hunter, DiscoveRx), and in radiometric (Upstate/Millipore) or FRET based fluorimetric (Z-lyte, Invitrogen) assays.

Compound: Cc1ccc(F)cc1C[C@H](C)Nc1cc[nH]c(=O)c1-c1nc2cc3c(cc2[nH]1)C(=O)N(CCN1CCCC1)C3 [compound (II)]
- IC50 (Karpas299): 5 to 10 nM
- IC50 (Fer): 42 nM
- Inhibition of 10 structurally diverse Ser-Thr kinases (10 Ser-Thr kinases): did not cause any significant inhibition
- activity at 1 µM (CYP2C9; human, recombinant CYP2C9, probe MFC, 1.0E−06 M, Table 5B individual results, read-out: CYP2C9 % Inhibition of Control Values, 1st/2nd/3rd): 75.8%
- activity at 5 µM (CYP2C9; human, recombinant CYP2C9, probe MFC, 5.0E−06 M, Table 5B individual results, read-out: CYP2C9 % Inhibition of Control Values, 1st/2nd/3rd): 63.8%
- inhibition at 1 µM (CYP2C9; human, recombinant CYP2C9, probe MFC, 1.0E−06 M, read-out: CYP2C9 % Inhibition of Control Values): 20%
- inhibition at 5 µM (CYP2C9; human, recombinant CYP2C9, probe MFC, 5.0E−06 M, read-out: CYP2C9 % Inhibition of Control Values): 41%
- IC50 (CYP2C9; read-out: approximate IC50 CYP2C9): > 5 µM
- Adverse effects at 5 and 10 mg/kg oral [1]: No adverse effects were observed
- Tolerability at 2.5 or 5 mg/kg IP [1]: safe
- Tolerability at 10 and 20 mg/kg IP [1]: exceeded MTD
- Concentration dissolved in 20-50 mM acetic or tartaric acid [2]: up to 5 mg/ml
- Plasma Concentration [3]: 100.41 ng/mL and 89.28 ng/mL and 41.61 ng/mL and 64.53 ng/mL
- IC50 (ALK [4]): 9.75 nM
- IC50 (ALK [5]; ADP Hunter, radiometric and Z-lyte assays, 100 or 200 μM ATP): 9 to 11 nM
- Selectivity for ALK versus the related IR and IGF1R (ALK [5]; radiometric assay (Upstate/Millipore)): 10-15 fold
